# Assays:
# [1] = system: extracellular ANX A1 release from U937 cells; experiment: Extracellular release of ANX A1 from U937 cells (ELISA); format: cell-based, human; conditions: for cellular release of ANX A1: PMA/LPS-treated U937 cells
# Procedure: (§1) For enzyme-linked immunosorbent assay (ELISA) assays, U937 cells (control or ANX A1 KD) were seeded on 96-well plates and stimulated by adding 100 nmol L^−1 phorbol myristate acetate (Sigma-Aldrich, MO, USA) for 24 h. The cells were treated for 12 h with LPS (100 ng mL^−1) with or without adding the indicated sesamin, SC1, or SC2 and/or PD98059 concentrations. The cell culture supernatants were collected, and TNFα or ANX A1 production was measured using ELISA (TNFα: R&D Systems; ANX A1: USCN, Wuhan, China) according to the manufacturer’s instructions.
# [2] = system: TNFα production in ANX A1 KD U937 cells; experiment: TNFα production in ANX A1 knockdown U937 cells (ELISA); format: cell-based, human; conditions: U937 cells with knocked down ANX A1
# Procedure: U937 cells were maintained in RPMI-1640 medium (Gibco/Thermo Fisher Scientific, MA, USA) supplemented with 10% fetal bovine serum. To generate a stable ANX A1-KD cell line, lentivirus vectors encoding a control or shRNA sequence targeting ANX A1 (Supplementary Methods) were transfected into 293FT cells. The lentivirus was prepared according to the manufacturer’s instructions (Invitrogen, MA, USA). U937 cells were infected with the lentivirus, and a stable cell line was selected by maintaining the cells in medium containing 10 μg mL^−1 blasticidin (Invitrogen) for 1 week.
# as §1
# [3] = system: TNFα production in U937 cells; experiment: TNFα production in PMA/LPS-stimulated U937 cells (ELISA); format: cell-based, human; conditions: for IC50: Homo sapiens, U-937, PMA-differentiated U937 cells, LPS, 12 h, ELISA; for inhibition of TNFα production induced by LPS and PMA: U937 cells, dose-dependent
# Procedure: as §1
# ANX A1 = target: T1, ANX A1 (Homo sapiens, UniProt P04083); experiment: Isothermal titration calorimetry (ITC) binding to ANX A1; conditions: for dH / dS: 3 mmol L^-1 Ca^2+; for Kd: Ca^2+ form of ANX A1, 3 mmol L^-1 CaCl2, ITC, 298 K, read-out: binding affinity (Kd)
# T1 construct: The ANX A1 cDNA fragment, full-length (1–346 a.a.) or deletion mutants; GST (pGEX-6P-1) (N, cleaved yes); made in house; host or cells: Escherichia coli BL21 (DE3)
# T1 sequence (P04083 1-346): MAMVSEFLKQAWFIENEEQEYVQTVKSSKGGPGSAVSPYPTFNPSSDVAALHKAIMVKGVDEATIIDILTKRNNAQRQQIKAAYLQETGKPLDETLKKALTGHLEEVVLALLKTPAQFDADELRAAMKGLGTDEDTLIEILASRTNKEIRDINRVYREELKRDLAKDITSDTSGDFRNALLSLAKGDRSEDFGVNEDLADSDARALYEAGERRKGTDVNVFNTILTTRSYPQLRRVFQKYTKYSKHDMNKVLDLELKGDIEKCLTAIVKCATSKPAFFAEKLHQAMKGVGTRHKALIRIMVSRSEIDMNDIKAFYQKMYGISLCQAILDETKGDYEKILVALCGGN
# Procedure: (§2) ITC experiments were performed at 298 K with ITC buffer (20 mmol L^−1 Tris-HCl (pH 7.5), 100 mmol L^−1 NaCl, 2% dimethyl sulfoxide) using a MicroCal iTC200 (Malvern). SC1 or SC2 were dissolved at 2 mmol L^−1 with ITC buffer and titrated into 1 μmol L^−1 of ANX A1 protein with or without 2 mmol L^−1 EDTA (for apo-ANX A1) or 3 mmol L^−1 CaCl2 (for Ca^2+-bound ANX A1). The titration was performed by injecting 2 µL of the syringe solution at intervals of 120 s. The binding isotherms were analysed using SEDPHAT.[54]
# [4] = system: phosphorylated (Ser27) ANX A1 in U937 cells; experiment: ANX A1 Ser27 phosphorylation in U937 cells (western blotting); format: cell-based, human
# Procedure: For analyses of ANX A1 phosphorylation, the U937 cells treated as above were lysed with NP40 lysis buffer (20 mmol L^−1 Tris-HCl (pH 7.5), 150 mmol L^−1 NaCl, 1% NP40), and the lysates (10 μg) were subjected to SDS-PAGE, followed by western blotting using antibodies against ANX A1 or phosphorylated (Ser27) ANX A1 (dilution: 1:1000).
# [5] = system: CCl4-treated ANX A1-KO mice; experiment: CCl4-induced liver damage and inflammation in ANX A1-KO mice; format: in vivo, mouse (C57BL/6J)
# Text: ANX A1-deficient mice (C57BL/6J) were generated by homologous recombination at Trans Genic Inc. (Fukuoka, Japan), as shown in Fig. S4. The vector targeting ANX A1 for deleting the coding region (exons 3–6) containing selectable neomycin-resistance (Neo) and PGK promoter genes was used. The targeting vector contained the 3.0 kbp of the 5′ arm flanking sequence and 4.5 kbp of the 3′ arm flanking sequence. The PGK-Neor gene was deleted by crossing with the CAG-flp mouse.[58]
# (§3) All protocols for animal procedures were approved by the Ethics Committee of Animal Experiments in accordance with the Internal Regulations on Animal Experiments at Keio University and Suntory Holdings Ltd, which are based on the Law for the Humane Treatment and Management of Animals (Law No. 105, 1 October 1973, as amended on 30 May 2014). Male C57BL/6J wild-type (WT) mice were purchased from CLEA Japan Inc. (Tokyo, Japan). WT and ANX A1-KO mice at 7 to 9 weeks of age received an intraperitoneal injection of vehicle (corn oil, 16.7 mL kg^−1) or CCl4 (50 μL kg^−1). To evaluate the effect of sesamin, vehicle (olive oil, 5 mL kg^−1) or sesamin (25 mg kg^−1) was orally administered twice at 1 h before and 7 h after CCl4 injection. To evaluate the effect of SC1, vehicle (ethanol dissolved in corn oil at a ratio of 1:19, 5 mL kg^−1) or SC1 (50 mg kg^−1) was intraperitoneally administered twice as mentioned above. Mice were euthanized after 12 or 24 h […] CCl4 injection before collecting blood and liver samples. Plasma AST, ALT, or LDH were measured using L-type AST J2, L-type ALT J2 or L-type LD J (Wako, Osaka, Japan), respectively. The liver tissues were fixed with 10% formalin, embedded in paraffin sectioned to 3–4 μm thickness and mounted on slides. Liver sections were de-paraffinized with xylene and re-hydrated with alcohols. The staining was performed with eosin solution for the cytoplasm and Mayer’s haematoxylin solution or monoclonal galectin-3 antibody (1:100, BioLegend, CA, USA). Slides were observed under a light microscope (BX52, Olympus, Japan), and images were analysed using LUMINA VISION (Mitani Corporation, Japan).
# (§4) Production of TNFα or MCP-1 in the plasma or liver was measured using a V-PLEX Proinflammatory Panel 1 Mouse Kit or U-PLEX Mouse MCP-1 assay Kit (Meso Scale Diagnostics, USA), respectively. Plasma or liver tissues homogenised in phosphate-buffered saline (Nacalai Tesque) were applied into the pre-coated plate with antibodies against target proteins before labelling with secondary antibodies conjugated to chemiluminescence. The signal intensity was measured using an analyser (SECTOR Imager 6000, Meso Scale Diagnostics, USA).
# (§5) Total RNA of the liver was extracted using an RNeasy Mini Kit (Qiagen, USA), and the cDNAs were prepared using High-Capacity cDNA Reverse Transcription Kits (Thermo Fisher Scientific, USA). Quantitative reverse transcription-PCR was performed according to the manufacturer’s instructions using the TaqMan® Gene Expression Assay System (Applied Biosystems, USA) with a 7900HT Fast Real Time PCR System (Applied Biosystems, USA). The levels of target mRNAs were normalised using the expression of the 18S ribosomal RNA. The primer IDs are listed in Supplementary Table 1.
# CCl4-treated WT mice = experiment: CCl4-induced liver damage and inflammation in WT mice; format: in vivo, mouse (C57BL/6J)
# Text: as §3, §4, §5
# recombinant ANX V = system: T2, recombinant ANX V; experiment: Affinity nanobeads binding assay with recombinant annexin V
# T2 construct: purchased Abcam
# [6] = system: ANX A1 mutants (G210W, F221S, and V251W); experiment: ITC binding analysis using recombinant ANX A1 point mutants; parameters: species or system human; conditions: V251W in contrast with ANX A1 WT
# Procedure: as §2
# Supplementary Fi g u re 3. Isothermal titra tion calori met ry analyses using ANX A1 […]
# Analyses of binding affinity between SC1 and ANX A1 (wild type (WT) or point mutants (G210W, F221S, or V251W)) using isothermal titration calorimetry ( ITC). […]
# (1 picture or pasted object on this page, not shown here)
# [7] = sesamin 25 mg kg^−1 orally twice, 24 h, ANX A1-null
# [8] = sesamin 25 mg kg^−1 twice, 12 h, qPCR, ANX A1-null
# [9] = sesamin 25 mg kg^−1 twice, 12 h after CCl4, ANX A1-null
# [10] = sesamin 25 mg kg^−1 twice, 24 h, qPCR, ANX A1-null
# [11] = sesamin 25 mg kg^−1 twice, 12 h, qPCR, WT
# [12] = sesamin 25 mg kg^−1 twice, 12 h after CCl4, WT
# [13] = sesamin 25 mg kg^−1 twice, 24 h, qPCR, WT
# [14] = SC1 50 mg kg^−1 intraperitoneally twice, 12 h after CCl4, ANX A1-null
# [15] = SC1 50 mg kg^−1 intraperitoneally twice, 12 h after CCl4, WT
# [16] = SC1 50 mg kg^−1 intraperitoneally twice, 24 h, WT
structure (smiles),measurement,setting,value
"Oc1ccc(C2OCC3C(c4ccc(O)c(O)c4)OCC23)cc1O (stereo not drawn) [SC2, (7α,7′α,8α,8′α)-7,9′:7′,9-diepoxylignane-3,3′,4,4′-tetraol]",cellular release of ANX A1,[1],significantly enhanced
same,inhibitory effects on TNFα production in ANX A1 knockdown cells,[2],disappeared
same,IC50,[3],10.3 µM
same,inhibition of TNFα production induced by LPS and PMA,[3],significantly inhibited
same,dH,ANX A1; ITC,-308.15 kcal/mol
same,dS,ANX A1; ITC,-1010.16 cal/mol K
same,Kd,ANX A1,8.05 µM
"COc1cccc(-c2cc(=O)c3ccccc3o2)c1N [PD98059, reference compound]",effect on up-regulation of ANX A1 release,"[1]; treated 1 h prior to LPS, dose-dependent",inhibited
same,effect on SC1-induced phosphorylation of ANX A1,[4]; treated 1 h prior to LPS treatment,suppressed
"c1cc2c(cc1[C@H]1OC[C@H]3[C@@H]1CO[C@@H]3c1ccc3c(c1)OCO3)OCO2 [Sesamin, (7α,7′α,8α,8′α)-3,4:3′,4′-bis(methylenedioxy)-7,9′:7′,9-diepoxylignane]",cellular release of ANX A1,[1],not
same,plasma ALT,[5]; [7],not observed
same,plasma LDH,[5]; [7],not observed
same,liver injury around the central vein (histology),"[5]; sesamin 25 mg kg^−1 orally twice, H&E, ANX A1-null",not
same,MCP-1 mRNA expression in the liver,[5]; [8],not observed
same,TNFα mRNA expression in the liver,[5]; [8],not observed
same,galectin-3 mRNA expression in the liver,[5]; [8],not observed
same,MCP-1 protein in the plasma,[5]; [9],not
same,TNFα protein in the liver,[5]; [9],not
same,TNFα protein in the plasma,[5]; [9],not
same,accumulation of galectin-3-positive cells in the liver,"[5]; sesamin 25 mg kg^−1 twice, 24 h, histology, ANX A1-null",not
same,liver mRNA expression of Col1a1,[5]; [10],not
same,liver mRNA expression of αSMA,[5]; [10],not
same,inhibition of TNFα production induced by LPS and PMA,[3],little inhibitory effect
same,binding activity with ANX A1 using ITC analysis,ANX A1; ITC,unable to detect any binding activity
same,plasma ALT,"CCl4-treated WT mice; sesamin 25 mg kg^−1 orally twice (1 h before, 7 h after CCl4), 24 h, WT",significantly suppressed
same,plasma LDH,"CCl4-treated WT mice; sesamin 25 mg kg^−1 orally twice, 24 h, WT",significantly suppressed
same,liver injury around the central vein (histology),"CCl4-treated WT mice; sesamin 25 mg kg^−1 orally twice, H&E, WT",suppressed liver injury
same,MCP-1 mRNA expression in the liver,CCl4-treated WT mice; [11],significantly suppressed
same,TNFα mRNA expression in the liver,CCl4-treated WT mice; [11],significantly suppressed
same,galectin-3 mRNA expression in the liver,CCl4-treated WT mice; [11],significantly suppressed
same,MCP-1 protein in the liver,CCl4-treated WT mice; [12],significantly suppressed
same,MCP-1 protein in the plasma,CCl4-treated WT mice; [12],significantly suppressed
same,TNFα protein in the liver,CCl4-treated WT mice; [12],significantly suppressed
same,TNFα protein in the plasma,CCl4-treated WT mice; [12],significantly suppressed
same,accumulation of galectin-3-positive cells in the liver,"CCl4-treated WT mice; sesamin 25 mg kg^−1 twice, 24 h, histology, WT",suppressed
same,liver mRNA expression of Col1a1,CCl4-treated WT mice; [13],suppressed
same,liver mRNA expression of αSMA,CCl4-treated WT mice; [13],suppressed
"Oc1ccc(C2OCC3C(c4ccc5c(c4)OCO5)OCC23)cc1O (stereo not drawn) [SC1, (7α,7′α,8α,8′α)-3′,4′-methylenedioxy-7,9′:7′,9-diepoxylignane-3,4-diol]",cellular release of ANX A1,[1],significantly enhanced
same,inhibitory effects on TNFα production in ANX A1 knockdown cells,[2],disappeared
same,ANX A1 phosphorylation at Ser27,"[4]; after PMA and LPS treatment, dose-dependent, 12 h",significantly induced phosphorylation
same,ANX A1 phosphorylation at Ser27,[4]; without PMA and LPS stimulation,not observed
same,binding of recombinant ANX V to beads,recombinant ANX V,no binding
same,binding activity to SC1 of ANX A1 mutants,[6],disrupted the binding activity
same,MCP-1 expression in the liver,[5]; [14],no effect was observed
same,TNFα expression in the liver,[5]; [14],no effect was observed
same,plasma AST,"[5]; SC1 50 mg kg^−1 intraperitoneally twice, 24 h, ANX A1-null",not
same,IC50,[3],2.2 µM
same,inhibition of TNFα production induced by LPS and PMA,[3],significantly inhibited
same,dH,ANX A1; ITC,-452.11 kcal/mol
same,dS,ANX A1; ITC,-1491.41 cal/mol K
same,Kd,ANX A1,2.77 µM
same,binding to apo-ANX A1,"ANX A1; Ca^2+ free (EDTA), ITC",No binding
same,MCP-1 expression in the liver,CCl4-treated WT mice; [15],suppressed
same,TNFα expression in the liver,CCl4-treated WT mice; [15],suppressed
same,plasma ALT,CCl4-treated WT mice; [16],suppressed
same,plasma AST,CCl4-treated WT mice; [16],suppressed
same,plasma LDH,CCl4-treated WT mice; [16],suppressed
